Experimental data taken from patent US10487117B2, “Antimicrobial peptide for nosocomial infections” (priority 2015, dated 2019).
Residues, ends and D or L forms follow the SMILES beside them.

Legend:
[1] = Biofilm cell mortality, BacTiter-Glo luminescent assay; type: cell-based, Pseudomonas aeruginosa; conditions: 24 h formed biofilm; 4 h at 37° C.; 10% Triton X-100 as maximum reference; N.D. = not detected at 50 μM; read-out: Biofilm cell mortality (%max)
Description: (§1) Bacterial viability was assayed using the BacTiter-Glo™ microbial cell viability kit. Briefly, protein/peptides were dissolved in 10 mM sodium phosphate, 0.1M buffer, pH 7.5, serially diluted from 50 to 0.1 μM and tested in a 96-well microtiter plate containing P. aeruginosa planktonic (OD600˜0.2) or 24 h formed biofilm for 4 h at 37° C. Fifty microliters of BacTiter-Glo™ reagent was added to each well according to the manufacturer's instructions and incubated at room temperature for 15 min. Luminescence was read on a Victor3 plate reader with a 3-s integration time. Fifty percent (ED50) and total inhibitory concentrations were calculated by fitting the data to a dose-response curve.
(§2) As a first approach, the biofilm cell viability was monitored using the BacTiter-Glo™ luminescent assay. Therefore, the antimicrobial action of the studied AMPs was determined on already established P. aeruginosa biolfilms (FIG. 1 and Table 6). […] However, for all the active peptides, the concentrations needed to produce an equivalent effect in biofilms were between 2 to 10 times higher than in planktonic cultures. […] At the same time, we applied the crystal violet technique to assess the peptide ability to disperse pre-established P. aeruginosa biofilms.
(§3) Biofilm formation assay was modified from the previously described protocol (Huedo P. et al. 2014). Briefly, overnight cultures of P. aeruginosa were centrifuged at 5000×g for 5 min, washed and adjusted to an OD600=0.1 in tryptic soy medium (TSB). Two hundred microliters of the bacterial suspension were dispensed in each well of a polystyrene 96-well microtiter plate (Greiner Bio-one, France). The plate was incubated at 37° C. on an orbital shaker (30 rpm). The media was exchanged with fresh pre-warmed TSB after 4 h, in order to remove the non-attached bacteria. After 24 h incubation, the formation of biofilm was then evaluated using the crystal violet staining technique (Stepanovic S. et al. 2000). Briefly, the plates were washed three times with PBS, fixed at 60° C. for 1 h, and stained for 15 min with 200 μl of 0.1% crystal violet. After the dye was discarded, plates were rinsed in PBS and allowed to dry for 30 min at 37° C. Crystal violet was dissolved in 250 μl of 95% ethanol for 15 min, and the OD570 of the extracted dye was measured using a Victor3 plate reader (Perkin-Elmer, Waltham, Mass.).

[2] = system: pre-established P. aeruginosa biofilm; experiment: as above; type: cell-based, Pseudomonas aeruginosa; conditions: 24 h formed biofilm; 4 h at 37° C.; 10% Triton X-100 as maximum reference; N.D. = not detected at 50 μM
Description: as §1, §2, §3

| Structure (SMILES) | mortality [1] [%] | Biofilm cell mortality (%max) [2] |
| --- | --- | --- |
| CC[C@H](C)[C@H](NC(=O)[C@H](CCCCN)NC(=O)[C@H](CCC(=O)O)NC(=O)[C@H](CCCCN)NC(=O)[C@H](CO)NC(=O)[C@H](CCCCN)NC(=O)[C@H](CCCNC(=N)N)NC(=O)[C@H](Cc1ccccc1)NC(=O)[C@H](Cc1ccccc1)NC(=O)[C@H](CC(=O)O)NC(=O)CNC(=O)[C@H](CC(C)C)NC(=O)[C@@H](N)CC(C)C)C(=O)NCC(=O)N[C@@H](CCCCN)C(=O)N[C@@H](CCC(=O)O)C(=O)N[C@@H](Cc1ccccc1)C(=O)N[C@@H](CCCCN)C(=O)N[C@@H](CCCNC(=N)N)C(=O)N[C@H](C(=O)N[C@H](C(=O)N[C@@H](CCC(N)=O)C(=O)N[C@@H](CCCNC(=N)N)C(=O)N[C@H](C(=O)N[C@@H](CCCCN)C(=O)N[C@@H](CC(=O)O)C(=O)N[C@@H](Cc1ccccc1)C(=O)N[C@@H](CC(C)C)C(=O)N[C@@H](CCCNC(=N)N)C(=O)N[C@@H](CC(N)=O)C(=O)N[C@@H](CC(C)C)C(=O)N[C@H](C(=O)N1CCC[C@H]1C(=O)N[C@@H](CCCNC(=N)N)C(=O)N[C@H](C(=O)N[C@@H](CCC(=O)O)C(=O)N[C@@H](CO)C(N)=O)[C@@H](C)O)C(C)C)[C@@H](C)CC)C(C)C)[C@@H](C)CC [LL-37] | 64 ± 3.33 |  |
| CC[C@H](C)[C@H](NC(=O)CNC(=O)[C@@H](NC(=O)[C@H](CCCCN)NC(=O)[C@H](CCCCN)NC(=O)[C@H](Cc1ccccc1)NC(=O)[C@H](CC(C)C)NC(=O)[C@H](CCCCN)NC(=O)[C@H](Cc1c[nH]c2ccccc12)NC(=O)[C@@H](N)CCCCN)[C@@H](C)CC)C(=O)NCC(=O)N[C@@H](C)C(=O)N[C@H](C(=O)N[C@@H](CC(C)C)C(=O)N[C@@H](CCCCN)C(=O)N[C@H](C(=O)N[C@@H](CC(C)C)C(=O)N[C@H](C(=O)N[C@H](C(=O)NCC(=O)N[C@@H](CC(C)C)C(=O)N1CCC[C@H]1C(=O)N[C@@H](C)C(=O)N[C@@H](CC(C)C)C(=O)N[C@H](C(=O)N[C@@H](CO)C(N)=O)[C@@H](C)CC)[C@@H](C)O)[C@@H](C)O)C(C)C)C(C)C [CA-M] | 54.3 ± 5.51 |  |
| CC[C@H](C)[C@H](NC(=O)[C@H](CCC(N)=O)NC(=O)CN)C(=O)N[C@H](C(=O)N[C@@H](CC(N)=O)C(=O)N[C@@H](CC(C)C)C(=O)N[C@@H](CCCCN)C(=O)N[C@@H](C)C(=O)N[C@@H](CO)C(=O)N[C@@H](CC(C)C)C(=O)N[C@@H](CC(=O)O)C(=O)N[C@@H](CC(C)C)C(=O)N[C@@H](CC(C)C)C(N)=O)[C@@H](C)CC [GL-13, GQIINLKASLDLL-NH2] (H-GQIINLKASLDLL-NH2) |  | unable to perform any cell mortality |
